US11338040B2, “Immunomodulatory compounds” (Leidos, Inc., priority 2020, dated 2022)
“Also recorded” adds a separate entry of the source. Non-standard residues stand in square brackets, D forms with d. Residues, ends and D or L forms follow the SMILES beside them. Primed or numbered codes have the meaning given here. No end group written: not given here. PEG4′ = PEG linker of 4 PEG units; PEG4 = NCCOCCOCCOCCOCCC(=O)O

Experiments:
[1] = target: T1, interaction between LAG3 and MHC-II (Homo sapiens, UniProt P18627); test: HTRF (TR-FRET) LAG3/MHC-II binding assay; settings: for response in dilution curve (HTRF signal): 10-fold dilutions starting at 100 μM or 10 μM, FIGS. 2A-9B; for IC50: LAG3:MHCII TR-FRET full dilution curves; for effect on HTRF signal: tested at 100 μM, 10 μM, and 1 μM, FIG. 1
T1 construct: purchased Cisbio US Inc
T1 sequence (P18627 23-450 limits assumed): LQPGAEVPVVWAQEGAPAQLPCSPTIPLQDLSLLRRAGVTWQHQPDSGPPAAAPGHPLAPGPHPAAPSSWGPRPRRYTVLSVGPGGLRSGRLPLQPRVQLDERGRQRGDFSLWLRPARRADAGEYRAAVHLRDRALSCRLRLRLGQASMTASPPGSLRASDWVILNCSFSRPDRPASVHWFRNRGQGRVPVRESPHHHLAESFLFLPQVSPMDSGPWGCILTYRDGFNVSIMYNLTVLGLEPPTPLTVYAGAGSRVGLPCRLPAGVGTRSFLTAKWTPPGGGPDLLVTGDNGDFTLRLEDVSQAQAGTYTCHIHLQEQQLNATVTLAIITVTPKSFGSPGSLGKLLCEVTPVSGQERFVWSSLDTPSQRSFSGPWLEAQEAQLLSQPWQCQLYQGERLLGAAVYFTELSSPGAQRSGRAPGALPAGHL
Text: A Homogeneous Time-resolved Fluorescence (HTRF) LAG3/MHC-II binding assay (Cisbio US Inc.) was used to measure the interaction between MHC-II and LAG3 in the presence of various peptides and peptide conjugates. In this assay, the interaction between Tag1-LAG3 and Tag2-MHC-II is detected by using anti-Tag1-Terbium (HTRF donor) and anti-Tag2-XL665 (HTRF acceptor). When the donor and acceptor antibodies are brought into close proximity due to LAG3 and MHC-II binding, excitation of the donor antibody triggers fluorescent resonance energy transfer (FRET) towards the acceptor antibody, which in turn emits specifically at 665 nm. This specific signal is directly proportional to the extent of LAG3/MHC-II interaction. Thus, an agent that blocks the interaction between LAG3 and MHC-II will cause a reduction in HTRF ratio.
Each of peptide conjugates BT1, BT2, BT3, BT4, BT5, BT6, BT7, BT8, BT9, and peptides LG11 (LAG3-11), LAG3-56 (SEQ ID NO:5), and LAG3-42 (SEQ ID NO:6) was tested at 3 concentrations: 100 μM, 10 μM, and 1 μM. The dashed-lines represent the HTRF ratio readout of a control ovalbumin peptide (OVA, SEQ ID NO:7) (baseline) at the respective concentrations.
peptide conjugates and LG peptides were tested in full dilution curves in the LAG3:MHCII TR-FRET Assay described above to estimate IC50. peptide conjugates were tested starting at 100 μM or 10 μM. LG peptides were tested starting at 100 μM.

PD1 = target: T2, PD1 (Homo sapiens, UniProt Q15116); test: PD1/PDL1 cell reporter assay (PathHunter, Jurkat PD1/SHP1 EFC cells co-incubated with PDL1-presenting U2OS cells); type: cell-based; settings: FIG. 10
T2 construct: expressed in transfected cells; host or cells: Jurkat cells (PD1-EFC and SHP1-EFC) co-cultured with PDL1-presenting U2OS cells
Description: Jurkat cells expressing PD1 and SHP1 proteins, each fused to a fragment of enzyme fragment complementation (EFC) system, were co-incubated with PDL1-presenting U2OS cells. […] Cells in co-culture were incubated at room temperature (RT) for 2 h (PD1 assay). The assay signal was generated using the PathHunter Bioassay Detection kit. Microplates were read following signal generation using a PerkinElmer ENVISION™ instrument for chemiluminescent signal detection. Inhibitory peptides or antibodies added to the culture result in reduction of light signal. The degree of inhibition was calculated using the following formula: Percent inhibition=100%×[1−(mean RLU of test sample−mean RLU of vehicle control)/mean RLU of EC80 control−mean RLU of vehicle control)].
Peptide conjugates BT1-BT11 were tested at three concentrations: 3.6 μM, 10.8 μM, 32.5 μM in triplicate wells. peptide conjugates were dissolved in DMSO and serially diluted in assay buffer. The highest concentration that can be tested in this assay was 32.5 μM peptide conjugate (1% DMSO).
Peptides LD12 (SEQ ID NO:9), LD10 (SEQ ID NO:1), and LD16 (SEQ ID NO:10) were tested at three concentrations: 11 μM, 33 μM, 100 μM in triplicate. LD peptides were dissolved in water and serially diluted in assay buffer. RLUs were measured at the end of the assay, and % Inhibition (% Efficiency) was calculated using the formula above.

[2] = peptide conjugates at 3.6 μM, 10.8 μM, 32.5 μM in triplicate
[3] = LD peptides at 11 μM, 33 μM, 100 μM in triplicate

T2 sequence (Q15116 25-288): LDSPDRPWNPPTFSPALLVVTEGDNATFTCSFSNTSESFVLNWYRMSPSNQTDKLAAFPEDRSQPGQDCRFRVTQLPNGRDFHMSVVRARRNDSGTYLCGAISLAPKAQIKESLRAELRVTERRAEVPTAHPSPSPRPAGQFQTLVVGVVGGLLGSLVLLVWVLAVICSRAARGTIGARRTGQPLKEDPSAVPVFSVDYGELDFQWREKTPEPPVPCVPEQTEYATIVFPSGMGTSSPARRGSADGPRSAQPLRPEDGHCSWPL

## CC[C@H](C)[C@H](NC(=O)[C@H](CO)NC(=O)[C@@H](NC(=O)[C@H](CC(C)C)NC(=O)[C@H](CCCNC(=N)N)NC(=O)[C@@H](NC(=O)[C@H](CC(N)=O)NC(=O)[C@@H](NC(=O)[C@@H](NC(=O)[C@H](C)NC(=O)[C@@H]1CCCN1C(=O)[C@H](CC(C)C)NC(=O)[C@H](CO)NC(=O)[C@H](CCC(N)=O)NC(C)=O)[C@@H](C)O)[C@@H](C)CC)C(C)C)[C@@H](C)O)C(=O)N[C@@H](CCC(N)=O)C(=O)NCC(=O)N[C@H](C(=O)N[C@H](CO)C(=O)NCCOCCOCCOCCOCCC(=O)N[C@@H](Cc1c[nH]c2ccccc12)C(=O)N[C@@H](CCC(=O)O)C(=O)NCC(=O)N[C@H](C(=O)NCC(=O)N[C@@H](CCC(N)=O)C(=O)N[C@@H](Cc1c[nH]c2ccccc12)C(=O)N[C@@H](Cc1c[nH]c2ccccc12)C(=O)N[C@@H](CC(=O)O)C(=O)N[C@@H](CCC(=O)O)C(=O)N1CCC[C@H]1C(=O)N[C@@H](Cc1c[nH]c2ccccc12)C(=O)N[C@@H](Cc1c[nH]cn1)C(=O)N[C@@H](CC(C)C)C(=O)N1CCC[C@H]1C(=O)N[C@@H](CCC(=O)O)C(=O)N[C@@H](Cc1c[nH]c2ccccc12)C(=O)N1CCC[C@H]1C(=O)N[C@@H](C)C(=O)N[C@@H](CO)C(N)=O)[C@@H](C)O)[C@@H](C)O [BT6] (Ac-QSLPATINVRLTSIQGT[dS][PEG4]WEGTGQWWDEPWHLPEWPAS-NH2)
[1]
  response in dilution curve (HTRF signal): reduced the HTRF signal
  IC50: 146 nM
  effect on HTRF signal: reduced the HTRF signal
PD1; [2]
  inhibition of PD1 activity (percent inhibition of light signal): did not show inhibition at any of the tested concentrations

## CC[C@H](C)[C@H](NC(=O)[C@H](CO)NC(=O)[C@@H](NC(=O)[C@H](CC(C)C)NC(=O)[C@H](CCCNC(=N)N)NC(=O)[C@@H](NC(=O)[C@H](CC(N)=O)NC(=O)[C@@H](NC(=O)[C@@H](NC(=O)[C@H](C)NC(=O)[C@@H]1CCCN1C(=O)[C@H](CC(C)C)NC(=O)[C@H](CO)NC(=O)[C@H](CCC(N)=O)NC(C)=O)[C@@H](C)O)[C@@H](C)CC)C(C)C)[C@@H](C)O)C(=O)N[C@@H](CCC(N)=O)C(=O)NCC(=O)N[C@H](C(=O)N[C@H](CO)C(=O)NCCOCCOCCOCCOCCC(=O)N[C@@H](CO)C(=O)N[C@@H](C)C(=O)N1CCC[C@H]1C(=O)N[C@@H](Cc1c[nH]c2ccccc12)C(=O)N[C@@H](CCC(=O)O)C(=O)N1CCC[C@H]1C(=O)N[C@@H](CC(C)C)C(=O)N[C@@H](Cc1c[nH]cn1)C(=O)N[C@@H](Cc1c[nH]c2ccccc12)C(=O)N1CCC[C@H]1C(=O)N[C@@H](CCC(=O)O)C(=O)N[C@@H](CC(=O)O)C(=O)N[C@@H](Cc1c[nH]c2ccccc12)C(=O)N[C@@H](Cc1c[nH]c2ccccc12)C(=O)N[C@@H](CCC(N)=O)C(=O)NCC(=O)N[C@H](C(=O)NCC(=O)N[C@@H](CCC(=O)O)C(=O)N[C@@H](Cc1c[nH]c2ccccc12)C(N)=O)[C@@H](C)O)[C@@H](C)O [BT7] (Ac-QSLPATINVRLTSIQGT[dS][PEG4]SAPWEPLHWPEDWWQGTGEW-NH2)
[1]
  response in dilution curve (HTRF signal): reduced the HTRF signal
  IC50: ~12.8 nM
  effect on HTRF signal: reduced the HTRF signal
PD1; [2]
  inhibition of PD1 activity (percent inhibition of light signal): reduced the activity of PD1 at one or two of the tested concentrations

## Ac-QSLPATINVRLTSIQGT(dS)^2-PEG4-QSLPATINVRLTSIQGT(dS)^2-amide (peptide 1 Ac-QSLPATINVRLTSIQGT[dS][PEG4′]; peptide 2 QSLPATINVRLTSIQGT[dS]-NH2; also: chain 1 C-terminus joined to chain 2 N-terminus via PEG4) [BT11, peptide conjugate of two LD10 peptides (reverse, reverse) separated by a PEG4 linker]
[1]
  response in dilution curve (HTRF signal): activity at 100 μM
[1]; listed as B11
  response in dilution curve (HTRF signal): no or activity only at 100 μM
PD1; [2]
  inhibition of PD1 activity (percent inhibition of light signal): reduced the activity of PD1 at one or two of the tested concentrations

## H2N-(dS)TGQISTLRVNITAPLSQ^1-PEG4-(dS)TGQISTLRVNITAPLSQ^1-amide (peptide 1 H-[dS]TGQISTLRVNITAPLSQ[PEG4′]; peptide 2 [dS]TGQISTLRVNITAPLSQ-NH2; also: chain 1 C-terminus joined to chain 2 N-terminus via PEG4) [BT9, peptide conjugate of two LD10 peptides (forward, forward) separated by a PEG4 linker]
[1]
  response in dilution curve (HTRF signal): no real effect; also recorded: no or activity only at 100 μM
  effect on HTRF signal: behaved in this assay like a LAG3 agonist
PD1; [2]
  inhibition of PD1 activity (percent inhibition of light signal): reduced the activity of PD1 at one or two of the tested concentrations

## H2N-(dS)TGQISTLRVNITAPLSQ^1-PEG4-QSLPATINVRLTSIQGT(dS)^2-amide [BT10]
[1]
  response in dilution curve (HTRF signal): activity at 100 μM
[1]; listed as B10
  response in dilution curve (HTRF signal): no or activity only at 100 μM
PD1; [2]
  inhibition of PD1 activity (percent inhibition of light signal): reduced the activity of PD1 at one or two of the tested concentrations

## H2N-(dS)TGQISTLRVNITAPLSQ^1-PEG4-WEGTGQWWDEPWHLPEWPAS^4-amide [BT8]
[1]
  response in dilution curve (HTRF signal): agonistic activity at 100 μM
  effect on HTRF signal: two concentrations of BT8 reduced the HTRF signal
PD1; [2]
  inhibition of PD1 activity (percent inhibition of light signal): did not show inhibition at any of the tested concentrations

## H2N-WEGTGQWWDEPWHLPEWPAS^4-PEG4-(dS)TGQISTLRVNITAPLSQ^1-amide [BT3]
[1]
  response in dilution curve (HTRF signal): agonistic activity at 100 μM and 10 μM
PD1; [2]
  inhibition of PD1 activity (percent inhibition of light signal): did not show inhibition at any of the tested concentrations

## LD10da: peptide LD10da (SEQ ID NO:8) (STGQISTLRVNITAPLSQ; LD10da peptide) [reference compound]
[1]
  response in dilution curve (HTRF signal): no response

## LD12: negative control peptide LD12 (SEQ ID NO:9) (CRRTSTGQISTARVNITAPLSQ; LD12 peptide) [reference compound]
PD1; [3]
  inhibition of PD1 activity (percent inhibition of light signal): did not show inhibition

## LD16: positive control peptide LD16 (SEQ ID NO:10) (TSTGQISTLRVNITAPLSQ; LD16 peptide) [reference compound]
PD1; [3]
  inhibition of PD1 activity (percent inhibition of light signal): Good dose-responses

## LG42: peptide LG42 (LAG3-42; SEQ ID NO:6) (DWNFQQWDWKKHNHLDSHVV; LAG3-42 peptide) [reference compound]
[1]
  response in dilution curve (HTRF signal): no response

## STGQISTLRVNITAPLSQ (LD10 peptide, forward orientation) [positive control peptide]
PD1; [3]
  inhibition of PD1 activity (percent inhibition of light signal): Good dose-responses
